± gives the expanded uncertainty stated by the source.
Assay: activity coefficient (dimensionless); of the first substance listed, at infinite dilution; xn = mol fraction of the nth substance listed
Details: 101 kPa, Liquid, Chromatography, x1 = 0

Row | SMILES | activity coefficient (318.15 K) | activity coefficient (328.15 K) | activity coefficient (338.15 K) | activity coefficient (348.15 K) | activity coefficient (358.15 K) | activity coefficient (368.15 K)
1 | Cc1ccc(C)cc1 [1,4-dimethylbenzene] + CCCC[N+]1(C)CCCC1.N#C[B-](C#N)(C#N)C#N | 1.46 ± 0.1 | 1.49 ± 0.1 | 1.54 ± 0.1 | 1.58 ± 0.1 | 1.59 ± 0.11 | 1.62 ± 0.11
2 | C=CCCC [1-pentene] + CCCC[N+]1(C)CCCC1.N#C[B-](C#N)(C#N)C#N | 5.58 ± 0.38 | 5.32 ± 0.36 | 5.3 ± 0.36 | 5.24 ± 0.36 | 5.01 ± 0.34 | 5.02 ± 0.34
3 | O [water] + CCCC[N+]1(C)CCCC1.N#C[B-](C#N)(C#N)C#N | 2.15 ± 0.15 | 1.87 ± 0.13 | 1.73 ± 0.12 | 1.58 ± 0.1 | 1.39 ± 0.09 | 1.28 ± 0.08
4 | CO [methanol] + CCCC[N+]1(C)CCCC1.N#C[B-](C#N)(C#N)C#N | 0.991 ± 0.062 | 0.912 ± 0.058 | 0.861 ± 0.055 | 0.812 ± 0.053 | 0.753 ± 0.05 | 0.723 ± 0.048
5 | CCC(C)(C)OC [2-methoxy-2-methylbutane] + CCCC[N+]1(C)CCCC1.N#C[B-](C#N)(C#N)C#N | 3.32 ± 0.23 | 3.34 ± 0.23 | 3.35 ± 0.23 | 3.36 ± 0.23 | 3.37 ± 0.23 | 3.39 ± 0.23
6 | C#CCCCC [1-hexyne] + CCCC[N+]1(C)CCCC1.N#C[B-](C#N)(C#N)C#N | 2.53 ± 0.17 | 2.56 ± 0.17 | 2.58 ± 0.18 | 2.63 ± 0.18 | 2.63 ± 0.18 | 2.68 ± 0.18
7 | CCC(C)CC [3-methylpentane] + CCCC[N+]1(C)CCCC1.N#C[B-](C#N)(C#N)C#N | 14.9 ± 1 | 13.8 ± 0.9 | 13 ± 0.9 | 12.6 ± 0.9 | 11.8 ± 0.8 | 11.2 ± 0.8
8 | C=CCCCC [hex-1-ene] + CCCC[N+]1(C)CCCC1.N#C[B-](C#N)(C#N)C#N | 7.68 ± 0.52 | 7.31 ± 0.5 | 7.16 ± 0.49 | 7.03 ± 0.48 | 6.57 ± 0.45 | 6.57 ± 0.45
9 | CCCCCCC [heptane] + CCCC[N+]1(C)CCCC1.N#C[B-](C#N)(C#N)C#N | 23 ± 1.6 | 21.5 ± 1.5 | 19.8 ± 1.4 | 19 ± 1.3 | 17.5 ± 1.2 | 16.6 ± 1.1
10 | CCCCCCCCCC [decane] + CCCC[N+]1(C)CCCC1.N#C[B-](C#N)(C#N)C#N | 65.7 ± 4.5 | 59.5 ± 4.1 | 53.8 ± 3.7 | 50.4 ± 3.5 | 44.9 ± 3.1 | 42.1 ± 2.9
11 | Cc1ccccc1C [1,2-dimethylbenzene] + CCCC[N+]1(C)CCCC1.N#C[B-](C#N)(C#N)C#N | 1.34 ± 0.09 | 1.36 ± 0.09 | 1.39 ± 0.09 | 1.41 ± 0.09 | 1.43 ± 0.09 | 1.46 ± 0.1
12 | CCC(=O)CC [pentan-3-one] + CCCC[N+]1(C)CCCC1.N#C[B-](C#N)(C#N)C#N | 0.65 ± 0.044 | 0.664 ± 0.045 | 0.688 ± 0.046 | 0.71 ± 0.047 | 0.719 ± 0.048 | 0.732 ± 0.048
13 | CCC(C)(C)C [2,2-dimethylbutane] + CCCC[N+]1(C)CCCC1.N#C[B-](C#N)(C#N)C#N | 15.7 ± 1.1 | 14 ± 1 | 13.2 ± 0.9 | 12.9 ± 0.9 | 12.1 ± 0.8 | 11.2 ± 0.8
14 | C=CCCCCCCCC [1-decene] + CCCC[N+]1(C)CCCC1.N#C[B-](C#N)(C#N)C#N | 29.7 ± 2 | 28.3 ± 1.9 | 27.1 ± 1.9 | 26.1 ± 1.8 | 23.5 ± 1.6 | 22.8 ± 1.6
15 | C1CCCCCC1 [cycloheptane] + CCCC[N+]1(C)CCCC1.N#C[B-](C#N)(C#N)C#N | 10.4 ± 0.7 | 9.7 ± 0.66 | 9.18 ± 0.63 | 8.85 ± 0.6 | 8.21 ± 0.56 | 7.78 ± 0.53
16 | CCCCCC [hexane] + CCCC[N+]1(C)CCCC1.N#C[B-](C#N)(C#N)C#N | 16.4 ± 1.1 | 15.3 ± 1 | 14.3 ± 1 | 13.8 ± 0.9 | 12.9 ± 0.9 | 12.3 ± 0.8
17 | CCCCO [butan-1-ol] + CCCC[N+]1(C)CCCC1.N#C[B-](C#N)(C#N)C#N | 1.88 ± 0.13 | 1.67 ± 0.11 | 1.55 ± 0.1 | 1.44 ± 0.09 | 1.33 ± 0.09 | 1.23 ± 0.08
18 | CCc1ccccc1 [ethylbenzene] + CCCC[N+]1(C)CCCC1.N#C[B-](C#N)(C#N)C#N | 1.56 ± 0.1 | 1.58 ± 0.1 | 1.6 ± 0.11 | 1.64 ± 0.11 | 1.66 ± 0.11 | 1.69 ± 0.11

Row | SMILES | activity coefficient (318.15 K) | activity coefficient (328.15 K) | activity coefficient (338.15 K) | activity coefficient (348.15 K) | activity coefficient (358.15 K) | activity coefficient (368.15 K)
19 | CCCCCCCC [octane] + CCCC[N+]1(C)CCCC1.N#C[B-](C#N)(C#N)C#N | 32.6 ± 2.2 | 30.2 ± 2.1 | 27.5 ± 1.9 | 26.2 ± 1.8 | 23.8 ± 1.6 | 22.5 ± 1.5
20 | c1ccccc1 [benzene] + CCCC[N+]1(C)CCCC1.N#C[B-](C#N)(C#N)C#N | 0.81 ± 0.052 | 0.816 ± 0.053 | 0.836 ± 0.054 | 0.855 ± 0.055 | 0.87 ± 0.056 | 0.887 ± 0.056
21 | CCCO [propan-1-ol] + CCCC[N+]1(C)CCCC1.N#C[B-](C#N)(C#N)C#N | 1.5 ± 0.1 | 1.36 ± 0.09 | 1.27 ± 0.08 | 1.18 ± 0.08 | 1.1 ± 0.07 | 1.04 ± 0.07
22 | C=CCCCCCC [oct-1-ene] + CCCC[N+]1(C)CCCC1.N#C[B-](C#N)(C#N)C#N | 15.4 ± 1.1 | 14.6 ± 1 | 14.1 ± 1 | 13.4 ± 0.9 | 12.6 ± 0.9 | 12.5 ± 0.9
23 | CCCOCCC [dipropyl ether] + CCCC[N+]1(C)CCCC1.N#C[B-](C#N)(C#N)C#N | 5.78 ± 0.39 | 5.65 ± 0.39 | 5.51 ± 0.38 | 5.42 ± 0.37 | 5.33 ± 0.36 | 5.26 ± 0.36
24 | C1=CCCCC1 [cyclohexene] + CCCC[N+]1(C)CCCC1.N#C[B-](C#N)(C#N)C#N | 4.09 ± 0.28 | 3.97 ± 0.27 | 3.93 ± 0.27 | 3.88 ± 0.26 | 3.73 ± 0.25 | 3.71 ± 0.25
25 | CCCC(C)=O [pentan-2-one] + CCCC[N+]1(C)CCCC1.N#C[B-](C#N)(C#N)C#N | 0.692 ± 0.047 | 0.701 ± 0.047 | 0.721 ± 0.048 | 0.735 ± 0.049 | 0.738 ± 0.049 | 0.755 ± 0.05
26 | CCO [ethanol] + CCCC[N+]1(C)CCCC1.N#C[B-](C#N)(C#N)C#N | 1.29 ± 0.08 | 1.17 ± 0.07 | 1.09 ± 0.07 | 1.02 ± 0.06 | 0.95 ± 0.06 | 0.894 ± 0.057
27 | c1ccsc1 [thiophene] + CCCC[N+]1(C)CCCC1.N#C[B-](C#N)(C#N)C#N | 0.659 ± 0.045 | 0.663 ± 0.045 | 0.684 ± 0.046 | 0.702 ± 0.047 | 0.711 ± 0.047 | 0.734 ± 0.049
28 | COC(C)(C)C [2-methoxy-2-methylpropane] + CCCC[N+]1(C)CCCC1.N#C[B-](C#N)(C#N)C#N | 2.37 ± 0.16 | 2.39 ± 0.16 | 2.46 ± 0.17 | 2.48 ± 0.17 | 2.52 ± 0.17 | 2.55 ± 0.17
29 | CCCCCCCCC [nonane] + CCCC[N+]1(C)CCCC1.N#C[B-](C#N)(C#N)C#N | 46.2 ± 3.2 | 42.5 ± 2.9 | 38.2 ± 2.6 | 36.3 ± 2.5 | 32.6 ± 2.2 | 30.3 ± 2.1
30 | Cc1ccccc1 [toluene] + CCCC[N+]1(C)CCCC1.N#C[B-](C#N)(C#N)C#N | 1.09 ± 0.07 | 1.11 ± 0.07 | 1.14 ± 0.07 | 1.16 ± 0.07 | 1.18 ± 0.08 | 1.2 ± 0.08
31 | Cc1cccc(C)c1 [1,3-dimethylbenzene] + CCCC[N+]1(C)CCCC1.N#C[B-](C#N)(C#N)C#N | 1.54 ± 0.1 | 1.56 ± 0.1 | 1.59 ± 0.11 | 1.62 ± 0.11 | 1.64 ± 0.11 | 1.66 ± 0.11
32 | CCCCC [pentane] + CCCC[N+]1(C)CCCC1.N#C[B-](C#N)(C#N)C#N | 12.1 ± 0.8 | 11.2 ± 0.8 | 10.5 ± 0.7 | 10.2 ± 0.7 | 9.56 ± 0.65 | 9.09 ± 0.62
33 | C1CCCCCCC1 [cyclooctane] + CCCC[N+]1(C)CCCC1.N#C[B-](C#N)(C#N)C#N | 13.5 ± 0.9 | 12.5 ± 0.9 | 11.6 ± 0.8 | 11.2 ± 0.8 | 10.3 ± 0.7 | 9.76 ± 0.67
34 | C1CCCCC1 [cyclohexane] + CCCC[N+]1(C)CCCC1.N#C[B-](C#N)(C#N)C#N | 8.42 ± 0.57 | 7.8 ± 0.53 | 7.45 ± 0.51 | 7.23 ± 0.49 | 6.75 ± 0.46 | 6.47 ± 0.44
35 | CCOCC [diethyl ether] + CCCC[N+]1(C)CCCC1.N#C[B-](C#N)(C#N)C#N | 2.32 ± 0.16 | 2.33 ± 0.16 | 2.34 ± 0.16 | 2.36 ± 0.16 | 2.37 ± 0.16 | 2.39 ± 0.16

— the NIST ThermoML archive (doi:10.1016/j.jct.2011.06.007)
